Molecular target: T1, STING (Homo sapiens, UniProt Q86WV6, G230A/H232R/R293Q/R71H)
T1 construct: host or cells: THP1-Dual KO-IFNAR2 cells
Assay: STING reporter assay: luciferase reporter activity in THP1-Dual KO-IFNAR2 cells stimulated with 2'3'cGAMP
Type: cell-based
Conditions: 2′3′cGAMP 15 μM final, 24h, read-out: hSTING: EC50
Method: STING pathway activation by the compounds described herein was measured using THIP1-Dua1™ cells (KO-IFNAR2).
TTIP1-Dual™ KO-IFNAR2 Cells (obtained from invivogen) were maintained in RPMI, 10% FCS, 5 ml P/S, 2 mM L-glut, 10 mM Hepes, and 1 mM sodium pyruvate. Compounds were spotted in empty 384 well tissue culture plates (Greiner 781182) by Echo for a final concentration of 0.0017-100 μM. Cells were plated into the TC plates at 40 μL per well, 2×10E6 cells/mL. For activation with STING ligand, 2′3′cGAMP (MW 718.38, obtained from Invivogen), was prepared in Optimem media.
The following solutions were prepared for each 1×384 plate: • Solution A: 2 mL Optimem with one of the following stimuli: • […] • Solution B: 2 mL Optimem with 60 μL Lipofectamine 2000->Incubate 5 min at RT
2 mL of solution A and 2 ml Solution B was mixed and incubated for 20 min at room temperature (RT). 20 uL of transfection solution (A+B) was added on top of the plated cells, with a final 2′3′cGAMP concentration of 15 μM. The plates were then centrifuged immediately at 340 g for 1 minute, after which they were incubated at 37° C., 5% C02, >98% humidity for 24h. Luciferase reporter activity was then measured. EC50 values were calculated by using standard methods known in the art.
Luciferase reporter assay: 10 μL of supernatant from the assay was transferred to white 384-plate with flat bottom and squared wells. One pouch of QUANTI-Luc™ Plus was dissolved in 25 mL of water. 100 μL of QLC Stabilizer per 25 mL of QUANTI-Luc™ Plus solution was added. 50 μL of QUANTI-Luc™ Plus/QLC solution per well was then added. Luminescence was measured on a Platereader (e.g., Spectramax I3X (Molecular Devices GF3637001)).
Luciferase reporter activity was then measured. EC50 values were calculated by using standard methods known in the art.

T1 sequence (Q86WV6 whole entry R71H/G230A/H232R/R293Q): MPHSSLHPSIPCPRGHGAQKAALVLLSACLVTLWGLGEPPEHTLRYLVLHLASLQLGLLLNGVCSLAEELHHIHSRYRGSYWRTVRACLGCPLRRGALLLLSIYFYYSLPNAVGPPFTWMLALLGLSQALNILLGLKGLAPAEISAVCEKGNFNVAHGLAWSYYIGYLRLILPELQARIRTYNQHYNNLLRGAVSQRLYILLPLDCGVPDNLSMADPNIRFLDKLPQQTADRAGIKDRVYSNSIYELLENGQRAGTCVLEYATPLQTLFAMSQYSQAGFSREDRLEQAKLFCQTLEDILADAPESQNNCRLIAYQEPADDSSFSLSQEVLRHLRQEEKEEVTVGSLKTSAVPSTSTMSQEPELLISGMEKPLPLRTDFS

Row | EC50 [nM] | Structure (SMILES)
1 | 40 to 200 | O=C(Nc1c[nH]c2cc(F)c(F)cc12)C(=O)N[C@H]1CCN(c2ccccc2)C1 [Compound 127]
2 | 1000 to 5000 | O=C(Nc1c[nH]c2cc(F)c(F)cc12)C(=O)N[C@@H]1CCN(c2ccccc2)C1 [Compound 128]
3 | 200 to 1000 | CC(C)n1cc(-c2ccc3[nH]cc(NC(=O)C(=O)NCc4ccc(C(F)(F)F)c(Cl)c4)c3c2)cn1 [Compound 129]
4 | 200 to 1000 | Cc1ccc(Cl)cc1NC(=O)C(=O)Nc1c[nH]c2cc(F)c(F)cc12 [Compound 130, N1-(5-chloro-2-methylphenyl)-N2-(5,6-difluoro-1H-indol-3-yl)oxalamide]
5 | 200 to 1000 | O=C(NCc1ccc(F)c(OC(F)(F)F)c1)C(=O)Nc1c[nH]c2cc(F)c(F)cc12 [Compound 131, N1-(5,6-difluoro-1H-indol-3-yl)-N2-(4-fluoro-3-(trifluoromethoxy)benzyl) oxalamide]
6 | 200 to 1000 | Cc1c(CNC(=O)C(=O)Nc2c[nH]c3cc(F)c(F)cc23)cccc1C(F)(F)F [Compound 132, N1-(5,6-difluoro-1H-indol-3-yl)-N2-(2-methyl-3-(trifluoromethyl)benzyl)oxalamide]
7 | 40 to 200 | O=C(NCc1ccc(C(F)(F)F)c(Cl)c1)C(=O)Nc1c[nH]c2ccc(Br)cc12 [Compound 133]
8 | 200 to 1000 | Cc1ccc(CNC(=O)C(=O)Nc2c[nH]c3ccc(-c4cccc(CO)c4)cc23)cc1C(F)(F)F [Compound 134]
9 | 200 to 1000 | O=C(NC[C@@H](C(F)F)C1CCCCC1)C(=O)Nc1c[nH]c2cc(F)c(F)cc12 [Compound 135]
10 | 40 to 200 | O=C(NC[C@H](C(F)F)C1CCCCC1)C(=O)Nc1c[nH]c2cc(F)c(F)cc12 [Compound 136]
11 | 200 to 1000 | CC(C)(NC(=O)C(=O)Nc1c[nH]c2cc(F)c(F)cc12)c1ccc(C(F)(F)F)c(Cl)c1 [Compound 137]
12 | 200 to 1000 | O=C(NCCc1ccccc1C(F)(F)F)C(=O)Nc1c[nH]c2cc(F)c(F)cc12 [Compound 138, N1-(5,6-difluoro-1H-indol-3-yl)-N2-(2-(trifluoromethyl)phenethyl) oxalamide]
13 | 200 to 1000 | O=C(NCC(c1ccccc1)C(F)F)C(=O)Nc1c[nH]c2cc(F)c(F)cc12 (stereo not drawn) [Compound 139]
14 | 1000 to 5000 | O=C(NCC1(c2cccc(Cl)c2)CCOCC1)C(=O)Nc1c[nH]c2cc(F)c(F)cc12 [Compound 140]
15 | 5000 to 100000 | CN(Cc1ccc(C(F)(F)F)c(Cl)c1)C(=O)C(=O)Nc1c[nH]c2cc(F)c(F)cc12 [Compound 141]
16 | 200 to 1000 | O=C(NCC(C(F)F)C1CCCCC1)C(=O)Nc1c[nH]c2cc(F)c(F)cc12 (stereo not drawn) [Compound 142]
17 | 200 to 1000 | O=C(NCCc1ccc(C(F)(F)F)c(Cl)c1)C(=O)Nc1c[nH]c2cc(F)c(F)cc12 [Compound 143]
18 | 200 to 1000 | O=C(NCCc1ccc(C(F)(F)F)cc1)C(=O)Nc1c[nH]c2cc(F)c(F)cc12 [Compound 144, N1-(5,6-difluoro-1H-indol-3-yl)-N2-(4-(trifluoromethyl)phenethyl) oxalamide]
19 | 200 to 1000 | O=C(NCC1CCc2ccccc2O1)C(=O)Nc1c[nH]c2cc(F)c(F)cc12 (stereo not drawn) [Compound 145, N-(chroman-2-ylmethyl)-N2-(5,6-difluoro-1H-indol-3-yl)oxalamide]
20 | 200 to 1000 | O=C(NCC1(c2ccccc2)CC1)C(=O)Nc1c[nH]c2cc(F)c(F)cc12 [Compound 146, N1-(5,6-difluoro-1H-indol-3-yl)-N2-((1-phenylcyclopropyl)methyl)oxalamide]
21 | 200 to 1000 | Cc1ccc(OCCNC(=O)C(=O)Nc2c[nH]c3cc(F)c(F)cc23)cc1C [Compound 147, N1-(5,6-difluoro-1H-indol-3-yl)-N2-(2-(3,4-dimethylphenoxy)ethyl)oxalamide]

Row | EC50 [nM] | Structure (SMILES)
22 | 40 to 200 | O=C(NCc1cccc2c1OC(F)(F)O2)C(=O)Nc1c[nH]c2cc(F)c(F)cc12 [Compound 148, N1-(5,6-difluoro-1H-indol-3-yl)-N2-((2,2-difluorobenzo[d] [1,3]dioxol-4-yl)methyl) oxalamide]
23 | 200 to 1000 | O=C(NCCOc1ccc(C(F)(F)F)cc1)C(=O)Nc1c[nH]c2cc(F)c(F)cc12 [Compound 149, N1-(5,6-difluoro-1H-indol-3-yl)-N2-(2-(4-(trifluoromethyl)phenoxy)ethyl) oxalamide]
24 | 200 to 1000 | O=C(NCC1CCCC(F)(F)C1)C(=O)Nc1c[nH]c2cc(F)c(F)cc12 (stereo not drawn) [Compound 150, N1-(5,6-difluoro-1H-indol-3-yl)-N2-((3,3-difluorocyclohexyl)methyl)oxalamide]
25 | 200 to 1000 | O=C(NCC1CCC(F)(F)CC1)C(=O)Nc1c[nH]c2cc(F)c(F)cc12 [Compound 151, N1-(5,6-difluoro-1H-indol-3-yl)-N2-((4,4-difluorocyclohexyl)methyl) oxalamide]
26 | 200 to 1000 | O=C(NCCC1(C(F)(F)F)CC1)C(=O)Nc1c[nH]c2cc(F)c(F)cc12 [Compound 152, N1-(5,6-difluoro-1H-indol-3-yl)-N2-(2-(1-(trifluoromethyl)cyclopropyl)ethyl)oxalamide]
27 | 1000 to 5000 | CC1(CNC(=O)C(=O)Nc2c[nH]c3cc(F)c(F)cc23)CCC(F)(F)CC1 [Compound 153, N1-((4,4-difluoro-1-methylcyclohexyl)methyl)-N2-(5,6-difluoro-1H-indol-3-yl)oxalamide]
28 | 200 to 1000 | Cc1cc(F)c(Cl)cc1NC(=O)C(=O)Nc1c[nH]c2cc(F)c(F)cc12 [Compound 154, N1-(5-chloro-4-fluoro-2-methylphenyl)-N2-(5,6-difluoro-1H-indol-3-yl)oxalamide]
29 | 200 to 1000 | O=C(NCC(F)(F)c1ccccc1)C(=O)Nc1c[nH]c2cc(F)c(F)cc12 [Compound 155, N1-(5,6-difluoro-1H-indol-3-yl)-N2-(2,2-difluoro-2-phenylethyl) oxalamide]
30 | 200 to 1000 | CC(NC(=O)C(=O)Nc1c[nH]c2cc(F)c(F)cc12)c1ccc(C(F)(F)F)cc1 (stereo not drawn) [Compound 156, N1-(5,6-difluoro-1H-indol-3-yl)-N2-(1-(4-(trifluoromethyl)phenyl)ethyl) oxalamide]
31 | 200 to 1000 | O=C(Nc1ccc(OCC(F)(F)F)nc1)C(=O)Nc1c[nH]c2cc(F)c(F)cc12 [Compound 157, N1-(5,6-difluoro-1H-indol-3-yl)-N2-(6-(2,2,2-trifluoroethoxy)pyridin-3-yl) oxalamide]
32 | 200 to 1000 | CC(CNC(=O)C(=O)Nc1c[nH]c2cc(F)c(F)cc12)Oc1ccc(C(F)(F)F)cc1 (stereo not drawn) [Compound 158, N1-(5,6-difluoro-1H-indol-3-yl)-N2-(2-(4-(trifluoromethyl)phenoxy)propyl) oxalamide]
33 | 200 to 1000 | COc1ccc(CNC(=O)C(=O)Nc2c[nH]c3cc(F)c(F)cc23)cc1C(F)(F)F [Compound 159, N1-(5,6-difluoro-1H-indol-3-yl)-N2-(4-methoxy-3-(trifluoromethyl)benzyl)oxalamide]
34 | 200 to 1000 | O=C(NCc1ccc(Cl)cc1C(F)(F)F)C(=O)Nc1c[nH]c2cc(F)c(F)cc12 [Compound 160, N1-(4-chloro-2-(trifluoromethyl)benzyl)-N2-(5,6-difluoro-1H-indol-3-yl)oxalamide]
35 | 200 to 1000 | COc1ccc(CNC(=O)C(=O)Nc2c[nH]c3cc(F)c(F)cc23)cc1Cl [Compound 161, N1-(3-chloro-4-methoxybenzyl) N2-(5,6-difluoro-1H-indol-3-yl)oxalamide]
36 | 200 to 1000 | O=C(NCc1cccc(N2CCCCC2)c1)C(=O)Nc1c[nH]c2cc(F)c(F)cc12 [Compound 162, N1-(5,6-difluoro-1H-indol-3-yl)-N2-(3-(piperidin-1-yl)benzyl) oxalamide]
37 | 200 to 1000 | O=C(NCc1cccc(C(F)(F)F)c1F)C(=O)Nc1c[nH]c2cc(F)c(F)cc12 [Compound 163, N1-(5,6-difluoro-1H-indol-3-yl)-N2-(2-fluoro-3-(trifluoromethyl)benzyl)oxalamide]
38 | 40 to 200 | O=C(NCc1ccc(Cl)c(C(F)(F)F)c1)C(=O)Nc1c[nH]c2cc(F)c(F)cc12 [Compound 164, N1-(4-chloro-3-(trifluoromethyl)benzyl)-N2-(5,6-difluoro-1H-indol-3-yl)oxalamide]
39 | 40 to 200 | O=C(NCc1ccccc1C(F)(F)F)C(=O)Nc1c[nH]c2cc(F)c(F)cc12 [Compound 165, N1-(5,6-difluoro-1H-indol-3-yl)-N2-(2-(trifluoromethyl)benzyl)oxalamide]
40 | 200 to 1000 | O=C(NCc1cccc(OC(F)(F)F)c1)C(=O)Nc1c[nH]c2cc(F)c(F)cc12 [Compound 166, N1-(5,6-difluoro-1H-indol-3-yl)-N2-(3-(trifluoromethoxy)benzyl)oxalamide]
41 | 200 to 1000 | Cc1c(NC(=O)C(=O)Nc2c[nH]c3cc(F)c(F)cc23)cccc1C(F)(F)F [Compound 167, N1-(5,6-difluoro-1H-indol-3-yl)-N2-(2-methyl-3-(trifluoromethyl)phenyl)oxalamide]
42 | 200 to 1000 | Cc1ccc(CNC(=O)C(=O)Nc2c[nH]c3ccc(-c4cnn(C(C)C)c4)cc23)cc1C(F)(F)F [Compound 168]

From patent US20230021448A1, “COMPOUNDS AND COMPOSITIONS FOR TREATING CONDITIONS ASSOCIATED WITH STING ACTIVITY” (IFM Due, Inc., priority 2019, published 2023)
